Tests used:
ΔF508-CFTR [1] = biological target: T1, ΔF508-CFTR (Homo sapiens, UniProt P13569, DEL508-508); assay: CFTR cell surface levels using HRP-tagged ΔF508-CFTR expressing CFBE cells, in the presence of a co-corrector; assay type: cell-based; settings: HRP-tagged ΔF508-CFTR expressing CFBE cells, in the presence of 3 μM co-corrector; for EC50: read-out: EC50
T1 construct: host or cells: CFBE41o-, doxycycline-inducible
Procedure, shortened: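 Cells were seeded with 0.5 μg/mL doxycycline and held 68 h at 37 °C. Test compounds plus 3 μM co-corrector (final 0.1% DMSO) were then added for 20 h at 33 °C. Washed cells received HRP substrate, and luminescence was normalized between DMSO and 3 μM co-corrector controls.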

ΔF508-CFTR [2] = biological target: T1, ΔF508-CFTR; assay: CFTR cell surface levels using HRP-tagged ΔF508-CFTR expressing CFBE cells, intrinsic corrector capacity; assay type: cell-based; settings: HRP-tagged ΔF508-CFTR expressing CFBE cells, intrinsic corrector capacity (no co-corrector), 33° C., 20 hours; for EC50: read-out: EC50
Procedure, shortened: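 Here the cells express ΔF508-CFTR with horseradish peroxidase inserted in extracellular loop 4, so only rescued channel at the surface gives luminescent signal. Compounds act on their own, 20 h at the reduced temperature of 33 °C; values are percent activity relative to DMSO and a 3 μM corrector.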

T1 sequence (P13569 with tags, fused parts or gaps DEL508-508): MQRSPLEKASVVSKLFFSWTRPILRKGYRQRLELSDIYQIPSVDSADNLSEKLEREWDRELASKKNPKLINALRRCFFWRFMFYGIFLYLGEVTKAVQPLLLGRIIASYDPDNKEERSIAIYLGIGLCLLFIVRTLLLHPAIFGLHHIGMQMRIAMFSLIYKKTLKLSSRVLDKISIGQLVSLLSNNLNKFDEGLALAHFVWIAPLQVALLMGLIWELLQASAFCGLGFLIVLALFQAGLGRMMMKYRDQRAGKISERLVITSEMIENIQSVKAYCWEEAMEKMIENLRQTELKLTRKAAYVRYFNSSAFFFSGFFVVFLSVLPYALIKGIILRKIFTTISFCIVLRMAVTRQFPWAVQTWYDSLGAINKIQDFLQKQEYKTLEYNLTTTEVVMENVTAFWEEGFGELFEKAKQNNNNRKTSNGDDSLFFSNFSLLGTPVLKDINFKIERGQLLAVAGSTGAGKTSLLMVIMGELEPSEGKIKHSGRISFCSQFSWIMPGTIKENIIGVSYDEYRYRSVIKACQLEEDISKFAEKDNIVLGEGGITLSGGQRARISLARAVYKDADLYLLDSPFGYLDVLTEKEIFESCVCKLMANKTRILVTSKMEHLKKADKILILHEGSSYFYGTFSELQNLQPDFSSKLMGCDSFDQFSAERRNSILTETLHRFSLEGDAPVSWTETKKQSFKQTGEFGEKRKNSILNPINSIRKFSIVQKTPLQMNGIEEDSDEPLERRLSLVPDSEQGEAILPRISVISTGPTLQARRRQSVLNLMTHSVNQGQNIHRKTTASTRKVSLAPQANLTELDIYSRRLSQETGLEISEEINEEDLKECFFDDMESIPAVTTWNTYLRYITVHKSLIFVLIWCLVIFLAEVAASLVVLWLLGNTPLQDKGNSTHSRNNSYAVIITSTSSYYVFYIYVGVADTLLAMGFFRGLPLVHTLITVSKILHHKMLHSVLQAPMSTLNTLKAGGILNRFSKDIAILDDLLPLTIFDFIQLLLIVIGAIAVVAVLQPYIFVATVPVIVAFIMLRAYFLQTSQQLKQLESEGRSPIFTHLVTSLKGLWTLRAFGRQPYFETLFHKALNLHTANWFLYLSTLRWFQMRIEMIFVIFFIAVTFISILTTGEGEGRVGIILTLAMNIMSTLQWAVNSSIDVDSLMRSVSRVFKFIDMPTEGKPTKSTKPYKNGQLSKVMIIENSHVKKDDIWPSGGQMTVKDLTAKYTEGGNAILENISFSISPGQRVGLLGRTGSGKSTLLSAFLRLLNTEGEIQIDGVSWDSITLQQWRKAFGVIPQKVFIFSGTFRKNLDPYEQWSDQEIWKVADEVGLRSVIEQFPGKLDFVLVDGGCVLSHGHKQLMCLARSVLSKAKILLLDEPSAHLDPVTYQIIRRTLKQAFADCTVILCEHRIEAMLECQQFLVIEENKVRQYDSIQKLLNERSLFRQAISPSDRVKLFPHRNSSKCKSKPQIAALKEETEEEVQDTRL

Row | SMILES | % Activation (ΔF508-CFTR [1]) [%] | EC50 (ΔF508-CFTR [1]) [nM] | % Activation (ΔF508-CFTR [2]) [%] | EC50 (ΔF508-CFTR [2]) [nM]
1 | CC(C)c1nn(-c2ccc(F)cc2)c2nc(C(=O)O)cc(N3CCCC(C(F)F)C3)c12 (stereo not drawn) [compound 399, 4-[3-(difluoromethyl)piperidin-1-yl]-1-(4-fluorophenyl)-3-(propan-2-yl)-1H-pyrazolo[3,4-b]pyridine-6-carboxylic acid] | 336.55 | 475 | 137.6 | 824
2 | CC(C)c1nn(-c2ccc(F)cc2)c2nc(C(=O)O)cc(N3CC4(CCCOC4)C3)c12 [compound 400, 1-(4-fluorophenyl)-4-(6-oxa-2-azaspiro[3.5]nonan-2-yl)-3-(propan-2-yl)-1H-pyrazolo[3,4-b]pyridine-6-carboxylic acid] | 283.65 | 980 | 111.35 | 1350
3 | CC(C)c1nn(-c2ccc(F)cc2)c2nc(C(=O)O)cc(N3CCC4(CCCO4)CC3)c12 [compound 401, 1-(4-fluorophenyl)-4-(1-oxa-8-azaspiro[4.5]decan-8-yl)-3-(propan-2-yl)-1H-pyrazolo[3,4-b]pyridine-6-carboxylic acid] | 306.07 | 653 | 136.97 | 1100
4 | CC(C)c1nn(C2CCCCC2)c2nc(C(=O)O)cc(C3=CC(C)(C)OC(C)(C)C3)c12 [compound 402, 1-cyclohexyl-3-(propan-2-yl)-4-(2,2,6,6-tetramethyl-3,6-dihydro-2H-pyran-4-yl)-1H-pyrazolo[3,4-b]pyridine-6-carboxylic acid] | 214.5 | 1110 | 43.815 | 715
5 | COCCC1CCN(c2cc(C(=O)O)nc3c2c(C2CCC2)nn3-c2ccccc2)CC1 [compound 403, 3-cyclobutyl-4-[4-(2-methoxyethyl)piperidin-1-yl]-1-phenyl-1H-pyrazolo[3,4-b]pyridine-6-carboxylic acid] | 507.25 | 311 | 293.4 | 408
6 | O=C(O)c1cc(N2CC3(CCCC3)C2)c2c(C3CCC3)nn(-c3ccccc3)c2n1 [compound 404, 4-(2-azaspiro[3.4]octan-2-yl)-3-cyclobutyl-1-phenyl-1H-pyrazolo[3,4-b]pyridine-6-carboxylic acid] | 275.95 | 849 | 104.91 | 910
7 | COCC1CCN(c2cc(C(=O)O)nc3c2c(C2CCC2)nn3-c2ccccc2)CC1 [compound 405, 3-cyclobutyl-4-[4-(methoxymethyl)piperidin-1-yl]-1-phenyl-1H-pyrazolo[3,4-b]pyridine-6-carboxylic acid] | 512.4 | 226 | 298.75 | 347
8 | O=C(O)c1cc(N2CC3CC3C2)c2c(C3CCC3)nn(-c3ccccc3)c2n1 (stereo not drawn) [compound 406, 4-(3-azabicyclo[3.1.0]hexan-3-yl)-3-cyclobutyl-1-phenyl-1H-pyrazolo[3,4-b]pyridine-6-carboxylic acid] | 359.55 | 641 | 182.5 | 823
9 | O=C(O)c1cc(OCC2CCCCC2)c2c(C3CCC3)nn(-c3ccccc3)c2n1 [compound 407, 3-cyclobutyl-4-(cyclohexylmethoxy)-1-phenyl-1H-pyrazolo[3,4-b]pyridine-6-carboxylic acid] | 323.95 | 662 | 125.25 | 925
10 | O=C(O)c1cc(N2CCCCC2)c2c(C3CCC3)nn(-c3ccccc3)c2n1 [compound 408, 3-cyclobutyl-1-phenyl-4-(piperidin-1-yl)-1H-pyrazolo[3,4-b]pyridine-6-carboxylic acid] | 346.95 | 617 | 141.15 | 932
11 | O=C(O)c1cc(N2CC3(CCCCC3)C2)c2c(C3CCC3)nn(-c3ccccc3)c2n1 [compound 409, 4-(2-azaspiro[3.5]nonan-2-yl)-3-cyclobutyl-1-phenyl-1H-pyrazolo[3,4-b]pyridine-6-carboxylic acid] | 249.3 | 1110 | 75.39 | 1070
12 | N#CC1CCN(c2cc(C(=O)O)nc3c2c(C2CCC2)nn3-c2ccccc2)CC1 [compound 410, 4-(4-cyanopiperidin-1-yl)-3-cyclobutyl-1-phenyl-1H-pyrazolo[3,4-b]pyridine-6-carboxylic acid] | 317.5 | 228 | 155.63 | 557
13 | CS(=O)(=O)C1CCN(c2cc(C(=O)O)nc3c2c(C2CCC2)nn3-c2ccccc2)CC1 [compound 411, 3-cyclobutyl-4-[4-(methanesulfonyl)piperidin-1-yl]-1-phenyl-1H-pyrazolo[3,4-b]pyridine-6-carboxylic acid] | 456 | 976 | 280.85 | 3340
14 | COC1CCN(c2cc(C(=O)O)nc3c2c(C(C)C)nn3-c2ccnc(N3CCCC3)c2)CC1 [compound 412, 4-(4-methoxypiperidin-1-yl)-3-(propan-2-yl)-1-[2-(pyrrolidin-1-yl)pyridin-4-yl]-1H-pyrazolo[3,4-b]pyridine-6-carboxylic acid] | 387.2 | 307 | 215.6 | 460
15 | N#CC1CCN(c2ccc(-c3cc(C(=O)O)nc4c3c(C3CCC3)nn4-c3ccnc(N4CCCC4)c3)cn2)CC1 [compound 413, 4-[6-(4-cyanopiperidin-1-yl)pyridin-3-yl]-3-cyclobutyl-1-[2-(pyrrolidin-1-yl)pyridin-4-yl]-1H-pyrazolo[3,4-b]pyridine-6-carboxylic acid] | 392.2 | 338 | 216.65 | 527
16 | O=C(O)c1cc(OCCC2CCOCC2)c2c(C3CCC3)nn(-c3ccccc3)c2n1 [compound 414, 3-cyclobutyl-4-[2-(oxan-4-yl)ethoxy]-1-phenyl-1H-pyrazolo[3,4-b]pyridine-6-carboxylic acid] | 295.15 | 373 | 120.3 | 692
17 | O=C(O)c1cc(OC[C@@H](F)C2CCOCC2)c2c(C3CCC3)nn(-c3ccccc3)c2n1 [compound 415, 3-cyclobutyl-4-[(2S)-2-fluoro-2-(oxan-4-yl)ethoxy]-1-phenyl-1H-pyrazolo[3,4-b]pyridine-6-carboxylic acid] | 334.35 | 249 | 168.85 | 487
18 | N#CC1CCN(c2ccc(-c3cc(C(=O)O)nc4c3c(C3CCC3)nn4-c3ccnc(N4CCOCC4)c3)cn2)CC1 [compound 416, 4-[6-(4-cyanopiperidin-1-yl)pyridin-3-yl]-3-cyclobutyl-1-[2-(morpholin-4-yl)pyridin-4-yl]-1H-pyrazolo[3,4-b]pyridine-6-carboxylic acid] | 369.5 | 785 | 179.1 | 1250
19 | O=C(O)c1cc(OCC2CCOCC2)c2c(C3CCC3)nn(-c3ccccc3)c2n1 [compound 417, 3-cyclobutyl-4-[(oxan-4-yl)methoxy]-1-phenyl-1H-pyrazolo[3,4-b]pyridine-6-carboxylic acid] | 322 | 318 | 134.8 | 546
20 | COCC1CN(c2cc(C(=O)O)nc3c2c(C2CCC2)nn3-c2ccccc2)C1 [compound 418, 3-cyclobutyl-4-[3-(methoxymethyl)azetidin-1-yl]-1-phenyl-1H-pyrazolo[3,4-b]pyridine-6-carboxylic acid] | 342.25 | 598 | 144.95 | 1220
21 | O=C(O)c1cc(N2CCCC3(CC3)C2)c2c(C3CCC3)nn(-c3ccccc3)c2n1 [compound 419, 4-(5-azaspiro[2.5]octan-5-yl)-3-cyclobutyl-1-phenyl-1H-pyrazolo[3,4-b]pyridine-6-carboxylic acid] | 293.9 | 509 | 136 | 983
22 | N#CC1CCN(c2ccc(-c3cc(C(=O)O)nc4c3c(C3CC(F)(F)C3)nn4-c3ccccc3)cn2)CC1 [compound 420, 4-[6-(4-cyanopiperidin-1-yl)pyridin-3-yl]-3-(3,3-difluorocyclobutyl)-1-phenyl-1H-pyrazolo[3,4-b]pyridine-6-carboxylic acid] | 411.25 | 289 | 211.15 | 534
23 | CO[C@H]1C[C@@H](c2nn(-c3ccccc3)c3nc(C(=O)O)cc(-c4ccc(N5CCC(C#N)CC5)nc4)c32)C1 [compound 421, 4-[6-(4-cyanopiperidin-1-yl)pyridin-3-yl]-3-(cis-3-methoxycyclobutyl)-1-phenyl-1H-pyrazolo[3,4-b]pyridine-6-carboxylic acid] | 368.65 | 723 | 184.4 | 1290
24 | COCCN(C)c1cc(C(=O)O)nc2c1c(C1CCC1)nn2-c1ccccc1 [compound 422, 3-cyclobutyl-4-[(2-methoxyethyl)(methyl)amino]-1-phenyl-1H-pyrazolo[3,4-b]pyridine-6-carboxylic acid] | 336.05 | 1000 | 131.9 | 1620
